Experimental data taken from patent US8471005B2 (Cephalon, Inc., priority 2008, dated 2013).
Where two headings read alike, the source gives them in different places.

Tests used:
ALK = target: T1, ALK (Homo sapiens, UniProt Q9UM73); experiment: ALK Kinase Assay (ELISA/TRF, PLC-γ substrate); type: biochemical; settings: read-out: ALK Potency
T1 construct: host or cells: baculovirus expression system
Summary of the method: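 IC50 values derive from percent inhibition plotted against log10 compound concentration and fitted to a variable-slope sigmoidal equation. The underlying reaction used 30 ng/ml ALK acting on immobilized PLC-γ (10 μg/mL in TBS) at 37° C for 15 minutes, read with Eu-N1 PT66 antibody.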

JAK2 = target: T2, JAK2 (Homo sapiens, UniProt O60674); experiment: Recombinant Human JAK2 Kinase Assay (TRF); type: biochemical; settings: read-out: JAK2 Potency
T2 construct: host or cells: baculovirus expression system
Summary of the method: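 Kinase activity of baculovirus-expressed JAK2 is followed on a surface-immobilised biotinylated peptide, with the reaction run for 20 min at room temperature in buffer containing 0.2 μM ATP and manganese. Phosphorylation is read with Eu-N1 PY100 antibody.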

[1] = ALK kinase inhibition, 1 μM ATP
[2] = JAK2 kinase inhibition, 0.2 μM ATP

T2 sequence (O60674 whole entry): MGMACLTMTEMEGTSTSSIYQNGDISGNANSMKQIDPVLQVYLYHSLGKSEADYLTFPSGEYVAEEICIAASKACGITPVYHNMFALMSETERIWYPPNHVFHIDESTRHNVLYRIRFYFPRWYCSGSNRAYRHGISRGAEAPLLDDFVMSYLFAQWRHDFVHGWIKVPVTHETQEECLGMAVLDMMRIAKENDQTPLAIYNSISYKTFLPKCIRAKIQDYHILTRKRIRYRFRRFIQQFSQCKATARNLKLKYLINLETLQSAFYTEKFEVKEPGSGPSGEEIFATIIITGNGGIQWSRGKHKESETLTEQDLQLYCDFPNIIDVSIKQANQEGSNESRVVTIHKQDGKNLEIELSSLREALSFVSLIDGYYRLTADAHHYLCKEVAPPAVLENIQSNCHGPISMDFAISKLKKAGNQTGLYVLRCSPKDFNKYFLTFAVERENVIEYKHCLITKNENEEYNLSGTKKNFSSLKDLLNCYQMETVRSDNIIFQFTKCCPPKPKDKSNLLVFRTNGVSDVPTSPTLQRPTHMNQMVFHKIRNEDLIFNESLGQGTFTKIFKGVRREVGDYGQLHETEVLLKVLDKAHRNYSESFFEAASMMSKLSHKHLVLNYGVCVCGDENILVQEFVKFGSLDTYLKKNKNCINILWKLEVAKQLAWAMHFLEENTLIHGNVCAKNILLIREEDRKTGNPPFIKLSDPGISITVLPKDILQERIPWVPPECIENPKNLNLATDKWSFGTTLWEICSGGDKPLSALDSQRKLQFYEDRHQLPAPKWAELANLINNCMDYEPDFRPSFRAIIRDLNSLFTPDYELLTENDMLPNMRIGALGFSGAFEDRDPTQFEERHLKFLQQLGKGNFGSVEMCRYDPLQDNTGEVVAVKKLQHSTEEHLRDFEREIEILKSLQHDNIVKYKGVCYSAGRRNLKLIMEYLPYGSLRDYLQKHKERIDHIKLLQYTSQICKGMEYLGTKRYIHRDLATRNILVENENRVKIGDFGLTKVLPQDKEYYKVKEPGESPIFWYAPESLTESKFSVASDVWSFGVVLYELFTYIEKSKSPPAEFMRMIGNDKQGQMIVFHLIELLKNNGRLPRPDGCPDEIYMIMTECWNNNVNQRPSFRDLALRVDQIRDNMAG
T1 sequence (Q9UM73 19-1620): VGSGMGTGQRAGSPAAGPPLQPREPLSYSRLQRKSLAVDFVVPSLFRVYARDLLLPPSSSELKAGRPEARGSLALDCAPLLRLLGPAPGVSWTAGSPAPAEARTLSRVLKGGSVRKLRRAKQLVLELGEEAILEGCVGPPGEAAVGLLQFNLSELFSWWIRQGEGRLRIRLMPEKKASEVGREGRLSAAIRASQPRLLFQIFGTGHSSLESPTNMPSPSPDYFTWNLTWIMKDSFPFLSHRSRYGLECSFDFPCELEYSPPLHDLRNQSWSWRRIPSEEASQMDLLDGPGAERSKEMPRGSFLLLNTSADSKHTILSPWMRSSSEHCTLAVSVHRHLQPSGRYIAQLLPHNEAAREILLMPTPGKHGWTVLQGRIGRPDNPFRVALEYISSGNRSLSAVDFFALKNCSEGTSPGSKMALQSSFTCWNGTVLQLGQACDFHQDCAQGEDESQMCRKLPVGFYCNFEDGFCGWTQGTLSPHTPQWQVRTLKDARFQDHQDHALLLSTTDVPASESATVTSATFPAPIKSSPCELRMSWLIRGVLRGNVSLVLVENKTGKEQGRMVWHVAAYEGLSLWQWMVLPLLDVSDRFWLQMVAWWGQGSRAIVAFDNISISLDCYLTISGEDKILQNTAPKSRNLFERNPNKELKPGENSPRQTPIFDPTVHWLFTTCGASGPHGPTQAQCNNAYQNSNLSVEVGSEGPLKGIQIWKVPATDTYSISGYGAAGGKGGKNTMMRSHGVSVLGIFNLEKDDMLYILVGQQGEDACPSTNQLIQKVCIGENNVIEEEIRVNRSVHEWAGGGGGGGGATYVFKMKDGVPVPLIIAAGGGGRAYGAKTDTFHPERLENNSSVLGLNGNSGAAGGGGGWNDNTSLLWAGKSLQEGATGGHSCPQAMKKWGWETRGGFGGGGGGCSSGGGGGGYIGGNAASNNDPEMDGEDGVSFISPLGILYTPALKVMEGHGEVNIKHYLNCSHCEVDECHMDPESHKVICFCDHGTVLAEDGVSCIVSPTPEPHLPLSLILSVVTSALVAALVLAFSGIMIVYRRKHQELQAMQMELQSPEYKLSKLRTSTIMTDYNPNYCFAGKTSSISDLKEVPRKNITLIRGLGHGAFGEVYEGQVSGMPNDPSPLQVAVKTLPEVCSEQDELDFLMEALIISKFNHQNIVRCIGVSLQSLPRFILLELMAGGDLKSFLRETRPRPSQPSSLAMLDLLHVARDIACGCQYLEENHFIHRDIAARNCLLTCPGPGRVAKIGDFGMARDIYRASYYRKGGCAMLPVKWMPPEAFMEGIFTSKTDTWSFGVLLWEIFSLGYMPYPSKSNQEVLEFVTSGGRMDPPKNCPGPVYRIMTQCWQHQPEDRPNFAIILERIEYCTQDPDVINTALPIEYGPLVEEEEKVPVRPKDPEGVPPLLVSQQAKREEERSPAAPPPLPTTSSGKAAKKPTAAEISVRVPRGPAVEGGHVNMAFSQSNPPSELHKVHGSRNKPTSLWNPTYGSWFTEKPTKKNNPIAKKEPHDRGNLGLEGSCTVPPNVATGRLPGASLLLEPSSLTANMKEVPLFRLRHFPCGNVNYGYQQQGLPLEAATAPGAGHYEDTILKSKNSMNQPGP

Compound	IC50 (ALK; [1]) [nM]	IC50 (JAK2; [2]) [nM]	IC50 (ALK; ALK Kinase Inhibition) [nM]	IC50 (JAK2; JAK2 Kinase Inhibition) [nM]
CN1CCN(c2ccc(Nc3ncc4ccc(-c5ccccc5N(C)S(C)(=O)=O)n4n3)nc2)CC1 [Example 1197, N-Methyl-N-(2-{2-[5-(4-methyl-piperazin-1-yl)-pyridin-2-ylamino]-pyrrolo[2,1-f][1,2,4]triazin-7-yl}-phenyl)-methanesulfonamide]	100 to 1000	< 100	–	–
CN1CCN(c2ccc(Nc3ncc4ccc(-c5ccc(S(=O)(=O)N(C)C)cc5)n4n3)cc2)CC1 [Example 83, N,N-Dimethyl-4-{2-[4-(4-methyl-piperazin-1-yl)-phenylamino]-pyrrolo[2,1-f][1,2,4]triazin-7-yl}-benzenesulfonamide]	–	–	100 to 1000	< 100
COc1cc(N2CCC(N3CCOCC3)CC2)ccc1Nc1ncc2ccc(-c3ccccc3NC(C)=O)n2n1 [Example 453, N-(2-{2-[2-Methoxy-4-(4-morpholin-4-yl-piperidin-1-yl)-phenylamino]-pyrrolo[2,1-f][1,2,4]triazin-7-yl}-phenyl)-acetamide]	–	–	100 to 1000	1000 to 10000
COc1cc(N2CCC(N3CCOCC3)CC2)ccc1Nc1ncc2ccc(-c3ccccc3F)n2n1 [Example 1473, [7-(2-Fluoro-phenyl)-pyrrolo[2,1-f][1,2,4]triazin-2-yl]-[2-methoxy-4-(4-morpholin-4-yl-piperidin-1-yl)-phenyl]-amine]	–	–	< 100	< 100
COc1cc(Nc2ncc3ccc(-c4cccc(Cl)c4)n3n2)cc(OC)c1OC [Example 143, [7-(3-Chloro-phenyl)-pyrrolo[2,1-f][1,2,4]triazin-2-yl]-(3,4,5-trimethoxy-phenyl)-amine]	–	–	100 to 1000	< 100
COc1cc(N2CCC[C@@H](CN3CCN(C)CC3)C2)ccc1Nc1ncc2ccc(-c3ccccc3OC)n2n1 [Example 470, {2-Methoxy-4-[(S)-3-(4-methyl-piperazin-1-ylmethyl)-piperidin-1-yl]-phenyl}-[7-(2-methoxy-phenyl)-pyrrolo[2,1-f][1,2,4]triazin-2-yl]-amine]	< 100	100 to 1000	–	–
CC(=O)N1CCCC(C)(C)c2ccc(Nc3ncc4ccc(-c5cccc(NS(C)(=O)=O)c5)n4n3)cc21 [Example 1365, N-{3-[2-(1-Acetyl-5,5-dimethyl-2,3,4,5-tetrahydro-1H-benzo[b]azepin-8-ylamino)-pyrrolo[2,1-f][1,2,4]triazin-7-yl]-phenyl}-methanesulfonamide]	1000 to 10000	< 100	–	–
COc1cc(CN2CCN(C(C)=O)CC2)ccc1Nc1ncc2ccc(-c3ccccc3N(C)S(C)(=O)=O)n2n1 [Example 1240, N-(2-{2-[4-(4-Acetyl-piperazin-1-ylmethyl)-2-methoxy-phenylamino]-pyrrolo[2,1-f][1,2,4]triazin-7-yl}-phenyl)-N-methyl-methanesulfonamide]	< 100	100 to 1000	–	–
COc1cc(N2CCC(CN3CCN(C)CC3)CC2)ccc1Nc1ncc2ccc(-c3ccccc3N(C)S(C)(=O)=O)n2n1 [Example 467, N-[2-(2-{2-Methoxy-4-[4-(4-methyl-piperazin-1-ylmethyl)-piperidin-1-yl]-phenylamino}-pyrrolo[2,1-f][1,2,4]triazin-7-yl)-phenyl]-N-methyl-methanesulfonamide]	–	–	< 100	100 to 1000
COc1ccc(-c2ccc3cnc(Nc4ccc5c(c4)CCN(C)C5)nn23)cn1 [Example 919, [7-(6-Methoxy-pyridin-3-yl)-pyrrolo[2,1-f][1,2,4]triazin-2-yl]-(2-methyl-1,2,3,4-tetrahydro-isoquinolin-6-yl)-amine]	100 to 1000	< 100	–	–
COc1ccccc1-c1ccc2cnc(Nc3ccc(C4(C#N)CCN(CC(N)=O)CC4)cc3)nn12 [Example 1548, 2-(4-Cyano-4-{4-[7-(2-methoxy-phenyl)-pyrrolo[2,1-f][1,2,4]triazin-2-ylamino]-phenyl}-piperidin-1-yl)-acetamide]	–	–	100 to 1000	< 100
COc1cc(CN2CCN(C(=O)CNC(=O)OC(C)(C)C)CC2)ccc1Nc1ncc2ccc(-c3ccccc3OC)n2n1 [Example 1242, [2-(4-{3-Methoxy-4-[7-(2-methoxy-phenyl)-pyrrolo[2,1-f][1,2,4]triazin-2-ylamino]-benzyl}-piperazin-1-yl)-2-oxo-ethyl]-carbamic acid tert-butyl ester]	100 to 1000	100 to 1000	–	–
COc1ccccc1-c1ccc2cnc(Nc3ccc(N4CCN(CC(C)(C)O)CC4)cc3)nn12 [Example 221, 1-(4-{4-[7-(2-Methoxy-phenyl)-pyrrolo[2,1-f][1,2,4]triazin-2-ylamino]-phenyl}-piperazin-1-yl)-2-methyl-propan-2-ol]	–	–	< 100	< 100
COc1ccc(-c2ccc3cnc(Nc4ccc5c(c4)CCN(CC(N)=O)C5)nn23)cn1 [Example 916, 2-{6-[7-(6-Methoxy-pyridin-3-yl)-pyrrolo[2,1-f][1,2,4]triazin-2-ylamino]-3,4-dihydro-1H-isoquinolin-2-yl}-acetamide]	> 10000	< 100	–	–

The remaining lines, values ahead:

IC50 (ALK; [1]) [nM]	IC50 (JAK2; [2]) [nM]	IC50 (ALK; ALK Kinase Inhibition) [nM]	IC50 (JAK2; JAK2 Kinase Inhibition) [nM]	Compound
–	–	100 to 1000	< 100	CC(C)(C)NS(=O)(=O)c1cccc(-c2ccc3cnc(Nc4ccc5nc(CN6CCN(CCO)CC6)[nH]c5c4)nn23)c1 [Example 1520, N-tert-Butyl-3-(2-{2-[4-(2-hydroxy-ethyl)-piperazin-1-ylmethyl]-3H-benzimidazol-5-ylamino}-pyrrolo[2,1-f][1,2,4]triazin-7-yl)-benzenesulfonamide]
< 100	100 to 1000	–	–	COc1cc(C2(C#N)CCC(N3CCOCC3)CC2)ccc1Nc1ncc2ccc(-c3ccccc3OC)n2n1 (stereo not drawn) [Example 1246, trans-1-[3-methoxy-4-[[7-(2-methoxyphenyl)pyrrolo[2,1-f][1,2,4]triazin-2-yl]amino]phenyl]-4-morpholino-cyclohexanecarbonitrile]
–	–	> 10000	1000 to 10000	COCC(C)Oc1ncc2ccc(-c3ccc(S(C)(=O)=O)cc3)n2n1 (stereo not drawn) [Example 113, 7-(4-Methanesulfonyl-phenyl)-2-(2-methoxy-1-methyl-ethoxy)-pyrrolo[2,1-f][1,2,4]triazine]
1000 to 10000	< 100	–	–	CC(C)C(=O)Nc1cccc(Nc2ncc3ccc(-c4cnn(C)c4)n3n2)c1 [Example 963, N-{3-[7-(1-Methyl-1H-pyrazol-4-yl)-pyrrolo[2,1-f][1,2,4]triazin-2-ylamino]-phenyl}-isobutyramide]
–	–	100 to 1000	< 100	CC(C)(C)NS(=O)(=O)c1cccc(-c2ccc3cnc(Nc4ccc(CN5CCCC5)cc4)nn23)c1 [Example 1429, N-tert-Butyl-3-[2-(4-pyrrolidin-1-ylmethyl-phenylamino)-pyrrolo[2,1-f][1,2,4]triazin-7-yl]-benzenesulfonamide]
100 to 1000	< 100	–	–	CC(C)(C)NS(=O)(=O)c1cccc(-c2ccc3cnc(Nc4ccc5[nH]c(=O)[nH]c5c4)nn23)c1 [Example 1298, N-tert-Butyl-3-[2-(2-oxo-2,3-dihydro-1H-benzimidazol-5-ylamino)-pyrrolo[2,1-f][1,2,4]triazin-7-yl]-benzenesulfonamide]
1000 to 10000	< 100	–	–	CN1CCN(C)C(c2cccc(Nc3ncc4ccc(-c5ccccc5N(C)S(C)(=O)=O)n4n3)c2)C1=O (stereo not drawn) [Example 1083, N-(2-{2-[3-(1,4-Dimethyl-3-oxo-piperazin-2-yl)-phenylamino]-pyrrolo[2,1-f][1,2,4]triazin-7-yl}-phenyl)-N-methyl-methanesulfonamide]
< 100	< 100	–	–	CCN(CC)C1CCN(c2ccc(Nc3ncc4ccc(-c5ccccc5OC)n4n3)cc2)CC1 [Example 1138, [4-(4-Diethylamino-piperidin-1-yl)-phenyl]-[7-(2-methoxy-phenyl)-pyrrolo[2,1-f][1,2,4]triazin-2-yl]-amine]
–	–	100 to 1000	< 100	O=S(=O)(c1ccccc1)c1ccc2cnc(Nc3ccc(N4CCOCC4)cc3)nn12 [Example 111, (7-Benzenesulfonyl-pyrrolo[2,1-f][1,2,4]triazin-2-yl)-(4-morpholin-4-yl-phenyl)-amine]
< 100	100 to 1000	–	–	CNC(=O)CN1CCC(c2ccc(Nc3ncc4ccc(-c5ccccc5N(C)S(C)(=O)=O)n4n3)c(OC)c2)CC1 [Example 870, 2-[4-(4-{7-[2-(Methanesulfonyl-methyl-amino)-phenyl]-pyrrolo[2,1-f][1,2,4]triazin-2-ylamino}-3-methoxy-phenyl)-piperidin-1-yl]-N-methyl-acetamide]
< 100	100 to 1000	–	–	COc1cc2c(cc1Nc1ncc3ccc(-c4cccc(S(=O)(=O)NC5CC5)c4)n3n1)CCN(C[C@@H](C)O)CC2 [Example 523, N-Cyclopropyl-3-{2-[3-((R)-2-hydroxy-propyl)-8-methoxy-2,3,4,5-tetrahydro-1H-benzo[d]azepin-7-ylamino]-pyrrolo[2,1-f][1,2,4]triazin-7-yl}benzenesulfonamide]
–	–	< 100	100 to 1000	COc1cc(N2CCC[C@@H](CN3CCN(C)CC3)C2)ccc1Nc1ncc2ccc(-c3ccccc3N(C)S(C)(=O)=O)n2n1 [Example 469, N-[2-(2-{2-Methoxy-4-[(S)-3-(4-methyl-piperazin-1-ylmethyl)-piperidin-1-yl]-phenylamino}-pyrrolo[2,1-f][1,2,4]triazin-7-yl)-phenyl]-N-methyl-methanesulfonamide]
–	–	100 to 1000	< 100	COc1ccccc1-c1ccc2cnc(Nc3cc[nH]n3)nn12 [Example 122, [7-(2-Methoxy-phenyl)-pyrrolo[2,1-f][1,2,4]triazin-2-yl]-(1H-pyrazol-3-yl)-amine]
